{"source": "ChEMBL document CHEMBL5550206", "about": "“Identification of 6-Fluorine-Substituted Coumarin Analogues as POLRMT Inhibitors with High Potency and Safety for Treatment of Pancreatic Cancer” (J Med Chem, 2024)", "key": {"[1]": {"target": "DNA-directed RNA polymerase, mitochondrial (Homo sapiens) (UniProt O00411)", "sequence (O00411 whole entry)": "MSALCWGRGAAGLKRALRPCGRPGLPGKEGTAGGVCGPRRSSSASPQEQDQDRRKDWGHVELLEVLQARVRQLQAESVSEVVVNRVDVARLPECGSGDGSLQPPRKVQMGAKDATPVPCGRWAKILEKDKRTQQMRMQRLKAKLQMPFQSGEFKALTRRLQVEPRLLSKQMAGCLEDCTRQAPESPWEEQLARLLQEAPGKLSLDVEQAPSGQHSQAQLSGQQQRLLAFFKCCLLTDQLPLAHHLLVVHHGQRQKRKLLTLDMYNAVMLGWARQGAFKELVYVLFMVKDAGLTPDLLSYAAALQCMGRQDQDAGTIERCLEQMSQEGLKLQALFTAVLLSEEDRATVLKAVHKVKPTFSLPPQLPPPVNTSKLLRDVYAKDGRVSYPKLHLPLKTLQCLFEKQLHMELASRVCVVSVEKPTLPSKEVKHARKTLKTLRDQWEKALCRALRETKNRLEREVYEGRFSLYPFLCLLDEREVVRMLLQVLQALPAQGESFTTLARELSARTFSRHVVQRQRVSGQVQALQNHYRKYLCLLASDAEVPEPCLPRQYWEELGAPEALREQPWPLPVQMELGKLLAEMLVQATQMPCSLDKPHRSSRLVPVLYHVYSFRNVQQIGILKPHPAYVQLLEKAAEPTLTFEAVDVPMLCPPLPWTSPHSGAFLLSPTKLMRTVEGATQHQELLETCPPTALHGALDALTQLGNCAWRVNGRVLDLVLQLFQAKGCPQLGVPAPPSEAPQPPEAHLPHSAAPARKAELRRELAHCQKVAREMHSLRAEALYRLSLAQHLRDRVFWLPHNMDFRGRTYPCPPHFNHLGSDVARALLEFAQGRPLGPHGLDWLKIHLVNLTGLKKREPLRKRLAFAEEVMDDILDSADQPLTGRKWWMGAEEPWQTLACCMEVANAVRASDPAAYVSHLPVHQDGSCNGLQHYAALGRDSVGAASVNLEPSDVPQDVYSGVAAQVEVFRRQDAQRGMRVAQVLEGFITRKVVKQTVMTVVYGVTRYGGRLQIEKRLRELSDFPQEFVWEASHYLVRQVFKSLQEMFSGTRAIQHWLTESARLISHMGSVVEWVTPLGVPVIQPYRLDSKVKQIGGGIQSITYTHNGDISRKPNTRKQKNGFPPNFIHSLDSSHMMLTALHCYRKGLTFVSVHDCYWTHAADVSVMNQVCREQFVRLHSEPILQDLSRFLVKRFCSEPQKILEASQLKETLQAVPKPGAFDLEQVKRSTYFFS", "assay": "Inhibition of human POLRMT in human MIA PaCa-2 cells assessed as mitochondria coded ubiquinone oxidoreductase core subunit 1 (ND I) transcript level at 500 nM measured after 24 hrs by RT-qPCR analysis relative to control", "set-up": "scale not given: the % may be the effect or the level left"}, "[2]": {"tested_on": "MIA PaCa-2", "assay": "Down-regulation of ND1 gene expression in human MIA PaCa-2 cells at 0.1 to 1 uM measured after 12 hrs by RT-qPCR analysis", "type": "functional, cell-based", "conditions": "dose 0.1-1 µM"}, "[3]": {"tested_on": "MIA PaCa-2", "assay": "Inhibition of RNA pol II in human MIA PaCa-2 cells assessed as effect on 25S RNA level at 0.1 to 1 uM measured after 12 hrs by RT-qPCR analysis", "type": "cell-based", "conditions": "dose 0.1-1 µM"}, "[4]": {"tested_on": "MIA PaCa-2", "assay": "Reduction of protein complexes of mitochondrial electron transport chain in human MIA PaCa-2 cells reduction in NDUFB8 protein level by Western blot analysis", "type": "functional, cell-based", "conditions": "dose 0.001-5 µM"}, "[5]": {"tested_on": "MIA PaCa-2", "assay": "Effect on ATP5A protein complexes in human MIA PaCa-2 cells reduction in NDUFB8 protein level at 0.01 to 10 uM by Western blot analysis", "type": "functional, cell-based", "conditions": "dose 0.01-10 µM"}, "[6]": {"tested_on": "MIA PaCa-2", "assay": "Induction of cell arrest in human MIA PaCa-2 cells assessed as accumulation of cells at G1 phase at 25 nM measured after 96 hrs by PI staining based flow cytometry (reference value: 64%)", "type": "functional"}, "[7]": {"tested_on": "MIA PaCa-2", "assay": "Induction of cell arrest in human MIA PaCa-2 cells assessed as accumulation of cells at G2 phase at 25 nM measured after 96 hrs by PI staining based flow cytometry (reference value: 11.2%)", "type": "functional"}, "[8]": {"tested_on": "MIA PaCa-2", "assay": "Induction of cell arrest in human MIA PaCa-2 cells assessed as accumulation of cells at G2 phase at 50 nM measured after 96 hrs by PI staining based flow cytometry (reference value: 11.2%)", "type": "functional"}, "[9]": {"tested_on": "MIA PaCa-2", "assay": "Induction of cell arrest in human MIA PaCa-2 cells assessed as accumulation of cells at G1 phase at 500 nM measured after 96 hrs by PI staining based flow cytometry (reference value: 64%)", "type": "functional"}, "[10]": {"tested_on": "MIA PaCa-2", "assay": "Induction of cell arrest in human MIA PaCa-2 cells assessed as accumulation of cells at S phase at 500 nM measured after 96 hrs by PI staining based flow cytometry (reference value: 16.8%)", "type": "functional"}, "[11]": {"tested_on": "MIA PaCa-2", "assay": "Induction of cell arrest in human MIA PaCa-2 cells assessed as late apoptotic cells at 50 nM measured after 4 days by Annexin V-FITC and propidium iodide (PI) staining based assay (reference value: 3.23%)", "type": "functional", "conditions": "time 4 day"}, "[12]": {"tested_on": "MIA PaCa-2", "assay": "Induction of cell arrest in human MIA PaCa-2 cells assessed as necrotic cells at 50 nM measured after 4 days by Annexin V-FITC and propidium iodide (PI) staining based assay (reference value: 0.82%)", "type": "functional", "conditions": "time 4 day"}, "[13]": {"tested_on": "MIA PaCa-2", "assay": "Induction of cell arrest in human MIA PaCa-2 cells assessed as viable cells at 100 nM measured after 4 days by Annexin V-FITC and propidium iodide (PI) staining based assay (reference value: 94.9%)", "type": "functional", "conditions": "MIA PaCa-2, 96 h, time 4 day, read-out: Activity"}, "[14]": {"tested_on": "MIA PaCa-2", "assay": "Induction of cell arrest in human MIA PaCa-2 cells assessed as late apoptotic cells at 100 nM measured after 4 days by Annexin V-FITC and propidium iodide (PI) staining based assay (reference value: 3.23%)", "type": "functional", "conditions": "time 4 day"}, "[15]": {"tested_on": "MIA PaCa-2", "assay": "Induction of cell arrest in human MIA PaCa-2 cells assessed as viable cells at 200 nM measured after 4 days by Annexin V-FITC and propidium iodide (PI) staining based assay (reference value: 94.9%)", "type": "functional", "conditions": "MIA PaCa-2, 96 h, time 4 day, read-out: Activity"}, "[16]": {"tested_on": "MIA PaCa-2", "assay": "Induction of cell arrest in human MIA PaCa-2 cells assessed as early apoptotic cells at 200 nM measured after 4 days by Annexin V-FITC and propidium iodide (PI) staining based assay (reference value: 1.07%)", "type": "functional", "conditions": "time 4 day"}, "[17]": {"tested_on": "MIA PaCa-2", "assay": "Induction of cell arrest in human MIA PaCa-2 cells assessed as late apoptotic cells at 200 nM measured after 4 days by Annexin V-FITC and propidium iodide (PI) staining based assay (reference value: 3.23%)", "type": "functional", "conditions": "time 4 day"}, "[18]": {"tested_on": "MIA PaCa-2", "assay": "Induction of cell arrest in human MIA PaCa-2 cells assessed as early apoptotic cells at 500 nM measured after 4 days by Annexin V-FITC and propidium iodide (PI) staining based assay (reference value: 1.07%)", "type": "functional", "conditions": "time 4 day"}, "[19]": {"tested_on": "MIA PaCa-2", "assay": "Induction of cell arrest in human MIA PaCa-2 cells assessed as late apoptotic cells at 500 nM measured after 4 days by Annexin V-FITC and propidium iodide (PI) staining based assay (reference value: 3.23%)", "type": "functional", "conditions": "time 4 day"}, "[20]": {"tested_on": "MIA PaCa-2", "assay": "Effect on mitochondrial membrane potential loss in human MIA PaCa-2 cells assessed as change in membrane potential at 0.1 to 5 uM incubated for 96 hrs by JC-1 staining based flow cytometry analysis", "type": "functional, cell-based", "conditions": "dose 0.1-5 µM"}, "[21]": {"tested_on": "MIA PaCa-2", "assay": "Induction of intracellular ROS generation in human MIA PaCa-2 cells at 0.1 to 5 uM incubated for 96 hrs by DCFH-DA staining based flow cytometry", "type": "functional, cell-based", "conditions": "dose 0.1-5 µM"}, "[22]": {"tested_on": "MIA PaCa-2", "assay": "Reduction in spare oxygen consumption rate (OCR) in human MIA PaCa-2 cells incubated for 168 hrs", "type": "functional, cell-based", "conditions": "dose 1-200 nM"}, "[23]": {"target": "DNA-directed RNA polymerase, mitochondrial (Homo sapiens) (UniProt O00411)", "assay": "Thermal stabilization of human POLRMT in human MIA PaCa-2 cells assessed as melting temperature at 100 uM measured after 30 mins incubation by Wester blot analysis (reference value: 42 degreeC)", "type": "cell-based"}, "[24]": {"assay": "Antiproliferative activity against human […] cells assessed as cell viability measured after 168 hrs incubation by SRB assay", "type": "functional, cell-based"}, "[25]": {"tested_on": "PANC-1", "assay": "Antiproliferative activity against human PANC-1 cells assessed as cell viability measured after 168 hrs incubation by SRB assay", "type": "functional, cell-based", "conditions": "PANC-1, 168 h"}, "[26]": {"tested_on": "CAPAN-1", "assay": "Antiproliferative activity against human CAPAN-1 cells assessed as cell viability measured after 168 hrs incubation by SRB assay", "type": "functional, cell-based", "conditions": "CAPAN-1, 168 h"}, "[27]": {"assay": "Antiproliferative activity against HUVEC cells assessed as cell viability measured after 168 hrs incubation by SRB assay", "type": "toxicity, cell-based", "conditions": "human"}, "[28]": {"assay": "Toxicity in BALB/c mouse xenografted with human MIA PaCa-2 cells assessed as pathological change in heart at 25 to 100 mg/kg, iv once daily for 25 consecutive day after 2 weeks of cells injection by H and E staining based optical microscopic analysis", "type": "organism-based", "conditions": "in vivo, 336 h, dose 25-100 mg/kg"}, "[29]": {"assay": "Toxicity in BALB/c mouse xenografted with human MIA PaCa-2 cells assessed as pathological change in liver at 25 to 100 mg/kg, iv once daily for 25 consecutive day after 2 weeks of cells injection by H and E staining based optical microscopic analysis", "type": "organism-based", "conditions": "in vivo, 336 h, dose 25-100 mg/kg"}, "[30]": {"assay": "Toxicity in BALB/c mouse xenografted with human MIA PaCa-2 cells assessed as pathological change in lung at 25 to 100 mg/kg, iv once daily for 25 consecutive day after 2 weeks of cells injection by H and E staining based optical microscopic analysis", "type": "organism-based", "conditions": "in vivo, 336 h, dose 25-100 mg/kg"}, "[31]": {"assay": "Toxicity in BALB/c mouse xenografted with human MIA PaCa-2 cells assessed as pathological change in kidney at 25 to 100 mg/kg, iv once daily for 25 consecutive day after 2 weeks of cells injection by H and E staining based optical microscopic analysis", "type": "organism-based", "conditions": "in vivo, 336 h, dose 25-100 mg/kg"}}, "note": "The source made the active and inactive calls. The rule behind the calls is not given here.", "data": [{"smiles": "CCN(CC)C(=O)[C@@H](C)Oc1cc2oc(=O)cc(-c3ccccc3C)c2cc1F", "values": [{"measurement": "Activity", "setting": "[1]", "result": 9, "unit": "%"}, {"measurement": "Activity", "setting": "[2]", "result": "Active"}, {"measurement": "inhibition", "setting": "[3]", "result": "inactive"}, {"measurement": "Activity", "setting": "[4]", "result": "Dose-Dependent Effect"}, {"measurement": "Activity", "setting": "[5]", "result": "inactive"}, {"measurement": "Activity", "setting": "[6]", "result": 65.5, "unit": "%"}, {"measurement": "Activity", "setting": "[7]", "result": 12.6, "unit": "%"}, {"measurement": "Activity", "setting": "[8]", "result": 10.4, "unit": "%"}, {"measurement": "Activity", "setting": "[9]", "result": 63.4, "unit": "%"}, {"measurement": "Activity", "setting": "[10]", "result": 17.6, "unit": "%"}, {"measurement": "Activity", "setting": "[11]", "result": 4.02, "unit": "%"}, {"measurement": "Activity", "setting": "[12]", "result": 0.76, "unit": "%"}, {"measurement": "viability at 0.1 µM", "setting": "[13]", "result": 94.9, "unit": "%"}, {"measurement": "Activity", "setting": "[14]", "result": 3.61, "unit": "%"}, {"measurement": "viability at 0.2 µM", "setting": "[15]", "result": 94.2, "unit": "%"}, {"measurement": "Activity", "setting": "[16]", "result": 1.06, "unit": "%"}, {"measurement": "Activity", "setting": "[17]", "result": 3.94, "unit": "%"}, {"measurement": "Activity", "setting": "[18]", "result": 0.77, "unit": "%"}, {"measurement": "Activity", "setting": "[19]", "result": 3.69, "unit": "%"}, {"measurement": "Activity", "setting": "[20]", "result": "inactive"}, {"measurement": "Activity", "setting": "[21]", "result": "inactive"}, {"measurement": "Activity", "setting": "[22]", "result": "Dose-Dependent Effect"}, {"measurement": "Tm", "setting": "[23]", "result": 57, "unit": "°C"}, {"measurement": "IC50", "setting": "[24]", "result": 4, "unit": "nM"}, {"measurement": "IC50", "setting": "[25]", "result": 198, "unit": "nM"}, {"measurement": "IC50", "setting": "[26]", "result": 404, "unit": "nM"}, {"measurement": "IC50 at 168 h", "setting": "[27]", "result": "> 50000", "unit": "nM"}, {"measurement": "Activity", "setting": "[28]", "result": "Non-Toxic"}, {"measurement": "Activity", "setting": "[29]", "result": "Non-Toxic"}, {"measurement": "Activity", "setting": "[30]", "result": "Non-Toxic"}, {"measurement": "Activity", "setting": "[31]", "result": "Non-Toxic"}]}]}
